PubChem BioAssay (NCI)
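GI50 is the concentration that inhibits growth by half. TGI: concentration producing complete growth inhibition.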

Columns and labels:
Assay in all cases: NCI tumour cell line growth inhibition, 384-well format
[1] = test system: ACHN renal
[2] = test system: U251 glioblastoma
[3] = test system: T-47D breast
[4] = test system: OVCAR-8 ovarian
[5] = test system: SK-OV-3 ovarian
[6] = test system: SF-539 CNS
[7] = test system: NCI-H522 lung
[8] = test system: 786-0 renal
[9] = test system: HL-60(TB) leukemia
[10] = test system: UO-31 renal
[11] = test system: SF-295 CNS
[12] = test system: HT29 colon
[13] = test system: NCI-H322M lung
[14] = test system: OVCAR-5 ovarian
[15] = test system: SR leukemia
[16] = test system: MDA-MB-468 breast
[17] = test system: DU-145 prostate
[18] = test system: CAKI-1 renal
[19] = test system: SK-MEL-5 melanoma
[20] = test system: NCI-H23 lung
[21] = test system: HCT-116 colon
[22] = test system: OVCAR-4 ovarian
[23] = test system: MCF7 breast
[24] = test system: MDA-MB-435 melanoma
[25] = test system: SN12C renal
[26] = test system: OVCAR-3 ovarian
[27] = test system: HOP-92 NSCLC
[28] = test system: MOLT-4 leukemia
[29] = test system: SK-MEL-28 melanoma
[30] = test system: MALME-3M melanoma
[31] = test system: EKVX NSCLC
[32] = test system: SK-MEL-2 melanoma
[33] = test system: SNB-75 CNS
[34] = test system: A549 NSCLC
[35] = test system: COLO 205 colon
[36] = test system: NCI-H226 lung
[37] = test system: M14 melanoma
[38] = test system: UACC-62 melanoma
[39] = test system: A498 renal
[40] = test system: NCI-H460 NSCLC
[41] = test system: PC-3 prostate
[42] = test system: SF-268 CNS
[43] = test system: HCT-15 colon
[44] = test system: K-562 leukemia
[45] = test system: IGROV1 ovarian
[46] = test system: HS 578T breast
[47] = test system: BT-549 breast
[48] = test system: HOP-62 NSCLC
[49] = test system: RXF 393 renal
[50] = test system: KM12 colon
[51] = test system: TK-10 renal
[52] = test system: UACC-257 melanoma
[53] = test system: SNB-19 CNS
[54] = test system: MDA-MB-231 breast
[55] = test system: SW-620 colon

In the case of `CCc1c2c(nc3ccc(OC(=O)N4CCC(N5CCCCC5)CC4)cc13)-c1cc3c(c(=O)n1C2)COC(=O)[C@]3(O)CC`, the GI50 [1] is reported as 2110 nM, the TGI [1] is reported as 5.05 µM and the GI50 [2] is reported as 2110 nM. The TGI [2] was 11.8 µM, the GI50 [3] was 3.53 µM and the TGI [3] was 41 µM. It also gave a GI50 [4] of 4.03 µM, a TGI [4] of 54.7 µM and a GI50 [5] of 2910 nM. It also gave a TGI [5] of 16.4 µM, a GI50 [6] of 2080 nM and a TGI [6] of 5.14 µM. It also gave a GI50 [7] of 1850 nM, a TGI [7] of 16.7 µM and a GI50 [8] of 3.02 µM. The TGI [8] was 10.4 µM, the GI50 [9] was 1620 nM and the TGI [9] was 3000 nM. The GI50 [10] was 8.09 µM, the TGI [10] was 41.2 µM and the GI50 [11] was 1890 nM. For the same compound, the TGI [11] was 4.34 µM, the GI50 [12] was 6.08 µM and the TGI [12] was 19.7 µM. For the same compound, the GI50 [13] was 16 µM, the TGI [13] was 42.3 µM and the GI50 [14] was 14.9 µM. The TGI [14] was 34.7 µM, the GI50 [15] was 150 nM and the TGI [15] was 299 nM. The GI50 [16] was 731 nM, the TGI [16] was 3.01 µM and the GI50 [17] was 2560 nM. For the same compound, the TGI [17] was 9.11 µM, the GI50 [18] was 3.08 µM and the TGI [18] was over 100 µM. It also gave a GI50 [19] of 2280 nM, a TGI [19] of 10.8 µM and a GI50 [20] of 2710 nM. For the same compound, the TGI [20] was 9.66 µM, the GI50 [21] was 1840 nM and the TGI [21] was 15.5 µM. The GI50 [22] was 21.5 µM, the TGI [22] was 59.8 µM and the GI50 [23] was 1300 nM. It also gave a TGI [23] of 14.8 µM, a GI50 [24] of 10.9 µM and a TGI [24] of 25.7 µM. It also gave a GI50 [25] of 2580 nM, a TGI [25] of 7.58 µM and a GI50 [26] of 1450 nM. For the same compound, the TGI [26] was 14.2 µM, the GI50 [27] was 6.81 µM and the TGI [27] was 43.9 µM. The GI50 [28] was 153 nM, the TGI [28] was 301 nM and the GI50 [29] was 7.12 µM. It also gave a TGI [29] of 36.8 µM, a GI50 [30] of 10.7 µM and a TGI [30] of 36.2 µM. It also gave a GI50 [31] of 13.5 µM, a TGI [31] of 45 µM and a GI50 [32] of 16.2 µM. It also gave a TGI [32] of 40.3 µM, a GI50 [33] of 2300 nM and a TGI [33] of 8.61 µM. For the same compound, the GI50 [34] was 8.58 µM, the TGI [34] was 94.1 µM and the GI50 [35] was 2700 nM. It also gave a TGI [35] of 21 µM, a GI50 [36] of 3.43 µM and a TGI [36] of 18.8 µM. For the same compound, the GI50 [37] was 4.12 µM, the TGI [37] was 26 µM and the GI50 [38] was 1210 nM. It also gave a TGI [38] of 7.79 µM, a GI50 [39] of 5.29 µM and a TGI [39] of 19.9 µM. For the same compound, the GI50 [40] was 4.26 µM, the TGI [40] was 24.5 µM and the GI50 [41] was 12.1 µM. The TGI [41] was 66.5 µM, the GI50 [42] was 1070 nM and the TGI [42] was 10.2 µM. It also gave a GI50 [43] of 5.87 µM, a TGI [43] of 24.1 µM and a GI50 [44] of 3.12 µM. It also gave a TGI [44] of 20.8 µM, a GI50 [45] of 10.3 µM and a TGI [45] of 29.1 µM. For the same compound, the GI50 [46] was 1690 nM, the TGI [46] was 17.4 µM and the GI50 [47] was 2510 nM. It also gave a TGI [47] of 13.4 µM, a GI50 [48] of 1570 nM and a TGI [48] of 4.42 µM. It also gave a GI50 [49] of 767 nM, a TGI [49] of 5.45 µM and a GI50 [50] of 2040 nM. It also gave a TGI [50] of 10.7 µM, a GI50 [51] of 9.46 µM and a TGI [51] of 38.7 µM. It also gave a GI50 [52] of 7.82 µM, a TGI [52] of 29.3 µM and a GI50 [53] of 4.15 µM. It also gave a TGI [53] of over 100 µM, a GI50 [54] of 16.9 µM and a TGI [54] of over 100 µM. It also gave a GI50 [55] of 851 nM and a TGI [55] of 18.1 µM.
